Reference: patent publication US20090233910A1, “Npy antagonists, preparation and uses” (CEREP, priority 2005, published 2009)
Marks after values point to notes of the source that are not given here.

Assays:
NPY Y1 receptor [1] = target: T1, NPY Y1 receptor (Homo sapiens, UniProt P25929); experiment: cAMP measurement test in SK-N-MC cells (shift of NPY dose-effect curves, forskoline-stimulated); format: cell-based; details: Schild analysis vs NPY, read-out: pA2 Y1 (converted)
T1 construct: host or cells: SK-N-MC cells (whole-cell suspension)
T1 sequence (P25929 1-384): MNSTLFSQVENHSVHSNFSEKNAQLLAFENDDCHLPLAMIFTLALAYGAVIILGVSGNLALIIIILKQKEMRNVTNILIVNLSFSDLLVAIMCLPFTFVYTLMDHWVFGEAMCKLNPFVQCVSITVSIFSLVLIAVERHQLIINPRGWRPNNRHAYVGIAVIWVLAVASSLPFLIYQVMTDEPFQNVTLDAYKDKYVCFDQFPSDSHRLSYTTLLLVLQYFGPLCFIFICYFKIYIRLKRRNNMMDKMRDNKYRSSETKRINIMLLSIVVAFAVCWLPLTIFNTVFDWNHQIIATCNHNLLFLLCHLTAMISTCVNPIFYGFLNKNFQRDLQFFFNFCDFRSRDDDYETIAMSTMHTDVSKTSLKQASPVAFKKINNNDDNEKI
Method: The SK-N-MC cells are cultured in 96-well plates. After aspirating the culture medium, the cells are washed with a phosphate buffer pH 7.4 (Invitrogen ref. 14190-094), then lifted with a Versene solution (Invitrogen, ref 15040-033). The cells are centrifuged at 500×g for 10 minutes at 4° C. They are resuspended in a stimulation buffer containing isobutyl-methyl-xanthine in sufficient concentration to inhibit the phosphodiesterases (Flashplate kit, Perkin Elmer). The tested compounds are added 10 minutes before depositing the NPY (Bachem, H3322) in variable concentration, then the 300 nM forskoline (Sigma, F6886). The cells are in cubated 1 hour at ambient temperature to allow cAMP production whose levels are measured using the Flashplate method after 2 hours incubation with the cAMP tracer [^125I]. The results are expressed in pA2 form observing the displacement of NPY dose-effect curves in the absence and presence of increasing concentrations of test compound [Schild, 1949, pAx and competitive drug antagonism, Br. J. Pharmacol., 4, 277-280].

NPY Y1 receptor [2] = target: T1, NPY Y1 receptor; experiment: Binding test to the NPY Y1 receptor ([125I]-PYY, SK-N-MC cell suspension); details: SK-N-MC cells, 25 pM [125I]-PYY
Method: The SK-N-MC cells (ATCC HBT10) are cultured at 37° C. in MEM medium (minimum essential medium) free of phenol red (Invitrogen ref. 04194565M) containing 10% foetal calf serum (Invitrogen ref. 10270-106), 1% non-essential aminoacids (Invitrogen ref. 11140-035), 1% sodium pyruvate (Invitrogen ref. 11360-039), 1% glutamine (Invitrogen ref. 25030-032), 100 IU/ml of penicillin and 100 μg/ml of streptomycin (Invitrogen ref. 15140-122) in a humid atmosphere containing 5% CO2.
After aspirating the culture medium, the cells are washed with a phosphate buffer pH 7.4 (Invitrogen ref. 14190-094), then lifted with a Versene solution (Invitrogen, ref 15040-033). The cells are centrifuged at 500×g for 10 minutes at 4° C. then resuspended in a freeze buffer pH 7.4 containing 50 mM HEPES (N-2-hydroxyethylpiperazine-N′-2-ethanesulfonic acid), 145 mM sodium chloride, 2.6 mM calcium chloride, 1 mM magnesium chloride, 10 mM glucose, and 1 mg/ml bovine albumin. The cell suspension is aliquoted into twenty million cells per milliliter of buffer and stored at −70° C.
The cell suspension is incubated 2 hours at 37° C. in an incubation buffer pH 7.4 containing 50 mM HEPES, 2.5 mM calcium chloride, 1 mM magnesium chloride, 0.025% sodium azide, 1 mg/ml bovine albumin and 25 pM [^125I]-PYY (Perkin Elmer, NEX341). The reaction is halted by filtering through a GF/B filter pre-treated with 0.3% PEI, and washed three times with 1 ml of 50 mM TRIS buffer [tris(hydroxymethyl)aminomethane]/HCl, pH 7.4. The radioactivity deposited on the filter is measured by liquid scintillation count (TopCount, Packard). Non-specific binding is determined in the presence of 1 μM NPY (Bachem, H3322). Results are expressed as IC50 values in nM calculated by non-linear regression with 4 parameters.

fasting mice = experiment: Food intake by fasting mice; format: in vivo; details: fasting male OF1 mice, 30 mg/kg ip
Method: The day before the experiment at 16 h, male OF1 mice (Charles River, France) with body weight varying between 20 and 25 g, are left to fast in individual cages with unlimited drink water. On the day of the experiment, at 9 h30±15 min, a control batch of 10 mice was given the solvent (5% DMSO, Merck, 1.02931.1000, 5% cremophor EL, Sigma C-5135, physiological saline solution to complete to volume) via intra peritoneal route or per os in a volume of 10 ml/kg, and the other batches of 10 mice were given the products to be tested dissolved in the solvent (10 or 30 mg/kg in a volume of 10 ml/kg ip ou po). Individual feed troughs filled with food (A04, UAR, France) were weighed then placed in the cages, exactly 30 min or 60.min after treating the mice ip or per os, respectively. The feed troughs were then weighed 1 h, 2 h, 3 h, 4 h and when applicable 6 h and 24 h after placing the feed troughs in the cages. Food consumptions are expressed in grams, as a mean±standard error (S.E.M). (n=10). Statistical analysis used ANOVA followed by Dunnett's multiple comparison test. The level of significance is obtained for p<0.05.

Row | SMILES | Kb (NPY Y1 receptor [1]) | IC50 (NPY Y1 receptor [2]) | Accumulated inhibition of food intake after ip administering of 30 mg/kg, 0-1 h (fasting mice; 0-1 h) | Accumulated inhibition of food intake after ip administering of 30 mg/kg, 0-2 h (fasting mice; 0-2 h) | Accumulated inhibition of food intake after ip administering of 30 mg/kg, 0-3 h (fasting mice; 0-3 h) | Accumulated inhibition of food intake after ip administering of 30 mg/kg, 0-4 h (fasting mice; 0-4 h)
1 | CCOc1cc(NC(=O)NC(CC)CC)ccc1Oc1ccc(NC(=O)c2ccc(O[C@H]3C[C@H]4CC[C@@H](C3)N4C)cc2)cc1 [Example 40, N-(4-{2-Ethoxy-4-[3-(1-ethyl-propyl)-ureido]-phenoxy}-phenyl)-4-(8-methyl-8-aza-bicyclo[3.2.1]oct-(3-endo)-yloxy)-benzamide] | 2.24 nM | 1.7 nM | – | – | – | –
2 | CCC(CC)NC(=O)Nc1ccc(Oc2cnc(NC(=O)c3ccc(OC4CCN(C(C)C)CC4)cc3)s2)c(OC)c1 [Example 2, N-(5-{4-[3-(1-Ethyl-propyl)-ureido]-2-methoxy-phenoxy}-thiazol-2-yl)-4-(1-isopropyl-piperidin-4-yloxy)-benzamide] | 10 nM | 15 nM | – | – | – | –
3 | CCCCN1CCC(Oc2ccc(C(=O)Nc3ccc(Oc4cc(F)c(NC(=O)NC(CC)CC)cc4OC)cc3)cc2C)CC1 [Example 312, 4-(1-Butyl-piperidin-4-yloxy)-N-(4-{4-[3-(1-ethyl-propyl)-ureido]-5-fluoro-2-methoxy-phenoxy}-phenyl)-3-methyl-benzamide] | – | – | 42%* | 21% | 33%** | 27%*
